Measurements reported in PubChem BioAssay AID651817 (Broad Institute, 2012).
The source made the active and inactive calls.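 Rule for the calls: active = compound whose fitted luminescence drop, meaning cytotoxicity, reaches half effect at most twice its top valid tested dose; inconclusive = flat curve with a moderate drop, or an unreliable fit; inactive = rise instead of drop, flat response, or weaker potency.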

test system: NIH/3T3 viability, ATP luminescence (CellTiter-Glo), 90 h; test: mouse fibroblast viability loss – cell-based, cherry-pick samples, set 2, cytotoxicity control for T. cruzi growth inhibitor project, dose response (AID 651817); conditions: not given

SMILES | AC50 [µM]
C[C@@H]1CN([C@@H](C)CO)C(=O)c2cccc(NC(=O)c3ccncc3)c2O[C@H]1CN(C)Cc1ccc(Oc2ccccc2)cc1 | 20.5

test system: not listed separately; test: as above; conditions: NIH/3T3 viability, ATP luminescence (CellTiter-Glo), 90 h; at 19.5 µM (top of the series)

SMILES | activity change, negative = cytotoxicity
Cc1noc(C)c1NC(=O)Nc1cccc2c1O[C@H](CN(C)S(C)(=O)=O)[C@H](C)CN([C@@H](C)CO)C2=O | 1.29% (inactive)
COc1ccc(CN(C)C[C@H]2Oc3c(NC(=O)c4ccncc4)cccc3C(=O)N([C@H](C)CO)C[C@@H]2C)cc1 | 23.4% (inactive)
C[C@@H]1CN([C@H](C)CO)C(=O)Cc2cc(NS(=O)(=O)c3ccccc3)ccc2O[C@@H]1CN(C)S(=O)(=O)c1ccc(Cl)cc1 | -10.7% (inactive)
Cc1ccc(S(=O)(=O)N(C)C[C@@H]2Oc3ccc(NS(=O)(=O)c4ccccc4)cc3CC(=O)N([C@H](C)CO)C[C@H]2C)cc1 | -18.9% (inactive)
C[C@H]1CN([C@@H](C)CO)C(=O)c2cccc(NC(=O)c3ccncc3)c2O[C@@H]1CN(C)Cc1ccc(Oc2ccccc2)cc1 | -16.8% (inactive)
Cc1ccc(S(=O)(=O)N(C)C[C@H]2Oc3c(NC(=O)c4nc5ccccc5s4)cccc3C(=O)N([C@H](C)CO)C[C@@H]2C)cc1 | -6.91% (inactive)
Cc1ccc(S(=O)(=O)Nc2ccc3c(c2)CC(=O)N([C@@H](C)CO)C[C@H](C)[C@@H](CN(C)Cc2ccccc2)O3)cc1 | 30.9% (inactive)
Cc1ccc(S(=O)(=O)Nc2ccc3c(c2)CC(=O)N([C@H](C)CO)C[C@H](C)[C@@H](CN(C)S(=O)(=O)c2ccc(Cl)cc2)O3)cc1 | -14.6% (inactive)
C[C@@H]1CN([C@H](C)CO)C(=O)c2cccc(NC(=O)c3ccncc3)c2O[C@@H]1CN(C)Cc1ccc2c(c1)OCO2 | -25.6% (inactive)
C[C@H](CO)N1C[C@H](C)[C@H](CN(C)CC2CCCCC2)Oc2c(NC(=O)c3ccncc3)cccc2C1=O | 2.09% (inactive)
COc1ccc(CN(C)C[C@@H]2Oc3c(NC(=O)Nc4ccc(C(F)(F)F)cc4)cccc3C(=O)N([C@H](C)CO)C[C@@H]2C)cc1 | -21.3% (inactive)
C[C@@H]1CN([C@H](C)CO)C(=O)c2cccc(NC(=O)c3ccncc3)c2O[C@@H]1CN(C)Cc1ccc(-c2ccccc2)cc1 | 6.2% (inactive)
Cc1ccc(S(=O)(=O)Nc2ccc3c(c2)CC(=O)N([C@H](C)CO)C[C@H](C)[C@H](CN(C)Cc2ccc(Cl)c(Cl)c2)O3)cc1 | -1.7% (inactive)
C[C@H]1CN([C@@H](C)CO)C(=O)c2cccc(NC(=O)c3ccncc3)c2O[C@H]1CN(C)Cc1ccc(Cl)c(Cl)c1 | -14.4% (inactive)
C[C@@H]1CN([C@H](C)CO)C(=O)Cc2cc(NS(=O)(=O)c3ccc(F)cc3)ccc2O[C@H]1CN(C)Cc1ccc(Cl)c(Cl)c1 | -17.9% (inactive)
Cc1ccc(S(=O)(=O)Nc2ccc3c(c2)CC(=O)N([C@H](C)CO)C[C@H](C)[C@@H](CN(C)Cc2ccccc2)O3)cc1 | -0.645% (inactive)

SMILES | activity change, negative = cytotoxicity
C[C@@H]1CN([C@H](C)CO)C(=O)c2cccc(NC(=O)c3ccncc3)c2O[C@H]1CN(C)CC1CCCCC1 | -12.3% (inactive)
C[C@H](CO)N1C[C@H](C)[C@@H](CN(C)Cc2ccc(C(F)(F)F)cc2)Oc2c(NC(=O)c3ccncc3)cccc2C1=O | -10.8% (inactive)
COc1ccc(CN(C)C[C@@H]2Oc3c(NC(=O)Nc4ccc(C(F)(F)F)cc4)cccc3C(=O)N([C@@H](C)CO)C[C@@H]2C)cc1 | -25.6% (inactive)
C[C@@H]1CN([C@@H](C)CO)C(=O)c2cccc(NC(=O)c3ccncc3)c2O[C@H]1CN(C)CC1CC1 | -16.5% (inactive)
C[C@H](CO)N1C[C@H](C)[C@H](CN(C)Cc2ccccc2)Oc2c(NC(=O)c3ccncc3)cccc2C1=O | 6.02% (inactive)
C[C@H]1CN([C@@H](C)CO)C(=O)c2cccc(NC(=O)c3ccncc3)c2O[C@@H]1CN(C)Cc1ccc(Cl)c(Cl)c1 | -25.7% (inactive)
C[C@@H]1CN([C@@H](C)CO)C(=O)c2cccc(NC(=O)c3nc4ccccc4s3)c2O[C@H]1CN(C)S(=O)(=O)c1ccc(Cl)cc1 | -6.73% (inactive)
Cc1ccc(S(=O)(=O)N(C)C[C@H]2Oc3ccc(NS(=O)(=O)c4ccccc4)cc3CC(=O)N([C@@H](C)CO)C[C@@H]2C)cc1 | 26% (inactive)
C[C@H]1CN([C@@H](C)CO)C(=O)c2cccc(NC(=O)c3ccncc3)c2O[C@H]1CN(C)Cc1ccc(-c2ccccc2)cc1 | 18.2% (inactive)
C[C@H](CO)N1C[C@H](C)[C@H](CN(C)S(=O)(=O)c2ccc(F)cc2)Oc2c(NC(=O)NC3CCCCC3)cccc2C1=O | -54.5% (inactive)
C[C@@H]1CN([C@@H](C)CO)C(=O)c2cccc(NC(=O)NC3CCCCC3)c2O[C@@H]1CN(C)S(=O)(=O)c1ccc(F)cc1 | 21.4% (inactive)
C[C@@H]1CN([C@H](C)CO)C(=O)c2cccc(NC(=O)c3ccncc3)c2O[C@@H]1CN(C)Cc1ccc(Oc2ccccc2)cc1 | 14.7% (inactive)
Cc1noc(C)c1NC(=O)Nc1cccc2c1O[C@@H](CN(C)S(C)(=O)=O)[C@H](C)CN([C@H](C)CO)C2=O | -6.79% (inactive)
C[C@H](CO)N1C[C@H](C)[C@@H](CN(C)S(=O)(=O)c2ccc(Cl)cc2)Oc2c(NC(=O)c3nc4ccccc4s3)cccc2C1=O | 14.7% (inactive)
C[C@H](CO)N1C[C@H](C)[C@@H](CN(C)Cc2ccc(-c3ccccc3)cc2)Oc2c(NC(=O)c3ccncc3)cccc2C1=O | -29.7% (inactive)

same assay, conditions: NIH/3T3 viability, ATP luminescence (CellTiter-Glo), 90 h; at 21 µM (top of the series)

SMILES | activity change, negative = cytotoxicity
Cc1ccc(S(=O)(=O)N(C)C[C@H]2Oc3ccc(NS(=O)(=O)c4ccc(Cl)cc4)cc3CC(=O)N([C@@H](C)CO)C[C@H]2C)cc1 | -13.4% (inactive)
Cc1ccc(S(=O)(=O)N(C)C[C@@H]2Oc3ccc(NS(=O)(=O)c4ccc(Cl)cc4)cc3CC(=O)N([C@H](C)CO)C[C@H]2C)cc1 | -11.6% (inactive)
C[C@H]1CN([C@@H](C)CO)C(=O)c2cccc(NC(=O)Nc3ccc(C(F)(F)F)cc3)c2O[C@@H]1CN(C)Cc1ccc(Cl)c(Cl)c1 | -12.5% (inactive)
Cc1ccc(S(=O)(=O)N(C)C[C@@H]2Oc3ccc(NS(=O)(=O)c4ccc(Cl)cc4)cc3CC(=O)N([C@H](C)CO)C[C@@H]2C)cc1 | -5.69% (inactive)
C[C@@H]1CN([C@@H](C)CO)C(=O)c2cccc(NC(=O)c3ccncc3)c2O[C@H]1CN(C)Cc1ccccc1 | 6.47% (inactive)
Cc1ccc(S(=O)(=O)Nc2ccc3c(c2)CC(=O)N([C@H](C)CO)C[C@H](C)[C@H](CN(C)S(=O)(=O)c2ccc(Cl)cc2)O3)cc1 | -27.3% (inactive)
